Measurements taken from paper PMC10720709, “Design, synthesis, and evaluation of 4-(3-(3,5-dimethylisoxazol-4-yl)benzyl)phthalazin-1(2H)-one derivatives: potent BRD4 inhibitors with anti-breast cancer activity” (Frontiers in Pharmacology, 2023).

How the values were obtained:
[1] = target: T1, recombinant BRD4 (BD1 + BD2) (Homo sapiens, UniProt O60885); assay: BRD4 TR-FRET activity assay; format: binding; settings: 1 μmol/L; read-out: BRD4 inhibition rate;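 note: signal rises with BET ligand binding to the bromodomains, so inhibitors lower it, 120 min incubation at room temperature, 1% DMSO, wells lacking ligand as negative control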
T1 construct: employing a recombinant BRD4 (BD1 + BD2) and its corresponding ligand
Method: The BRD4 activity assay utilized TR-FRET technology, employing a recombinant BRD4 (BD1 + BD2) and its corresponding ligand. The TR-FRET signal generated in the assay is proportional to the ligand’s binding to the bromodomains. All reactions contained a final DMSO concentration of 1%. All binding reactions were conducted at room temperature. Each 20 µL reaction mixture, in assay buffer, comprised bromodomains, the BET Ligand, and the specified inhibitor amount. For the negative control, 5 µL of assay buffer replaced the BET ligand. After a 120-min incubation with the ligand, the TR-FRET signal was captured using a Tecan Infinite M1000 plate reader. IC50 values were determined through nonlinear regression with a normalized dose-response fit in Prism GraphPad software.

Row | SMILES | melting point [°C] | inhibition at 1 µM [1] [%]
1 | Cc1cc(C)cc(S(=O)(=O)Nc2cc(Cc3n[nH]c(=O)c4ccccc34)cc(-c3c(C)noc3C)c2)c1 [DDT60] | 155 to 156 | 28
2 | CCc1ccc(S(=O)(=O)Nc2cc(Cc3n[nH]c(=O)c4ccccc34)cc(-c3c(C)noc3C)c2)cc1 [DDT62] | 202 to 203 | 67
3 | CCCc1ccc(S(=O)(=O)Nc2cc(Cc3n[nH]c(=O)c4ccccc34)cc(-c3c(C)noc3C)c2)cc1 [DDT63] | 148 to 149 | 51
4 | Cc1noc(C)c1-c1cc(Cc2n[nH]c(=O)c3ccccc23)cc(NS(=O)(=O)c2ccc(C(C)(C)C)cc2)c1 [DDT65] | 154 to 155 | 44
5 | COc1cccc(S(=O)(=O)Nc2cc(Cc3n[nH]c(=O)c4ccccc34)cc(-c3c(C)noc3C)c2)c1 [DDT68] | 184 to 185 | 59
6 | COc1ccc(S(=O)(=O)Nc2cc(Cc3n[nH]c(=O)c4ccccc34)cc(-c3c(C)noc3C)c2)cc1 [DDT69] | 155 to 156 | 70
7 | COc1ccc(S(=O)(=O)Nc2cc(Cc3n[nH]c(=O)c4ccccc34)cc(-c3c(C)noc3C)c2)cc1OC [DDT70] | 165 to 166 | 32
8 | CC(=O)Nc1cccc(S(=O)(=O)Nc2cc(Cc3n[nH]c(=O)c4ccccc34)cc(-c3c(C)noc3C)c2)c1 [DDT72] | 192 to 193 | 4

The remaining lines, values ahead:

Row | melting point [°C] | inhibition at 1 µM [1] [%] | SMILES
9 | 148 to 149 | 34 | Cc1noc(C)c1-c1cc(Cc2n[nH]c(=O)c3ccccc23)cc(NS(=O)(=O)c2ccc(OCc3ccccc3)cc2)c1 [DDT74]
10 | 162 to 163 | 42 | Cc1noc(C)c1-c1cc(Cc2n[nH]c(=O)c3ccccc23)cc(NS(=O)(=O)c2ccc3c(c2)CCO3)c1 [DDT75]
11 | 154 to 155 | 38 | Cc1cccc(CS(=O)(=O)Nc2cc(Cc3n[nH]c(=O)c4ccccc34)cc(-c3c(C)noc3C)c2)c1 [DDT77]
12 | 238 to 239 | 7 | Cc1noc(C)c1-c1cc(Cc2n[nH]c(=O)c3ccccc23)cc(NS(=O)(=O)c2ccc(O)cc2)c1 [DDT79]
13 | 197 to 198 | 15 | Cc1noc(C)c1-c1cc(Cc2n[nH]c(=O)c3ccccc23)cc(NS(=O)(=O)c2ccccc2C(F)(F)F)c1 [DDT80]
14 | 193 to 194 | 24 | Cc1noc(C)c1-c1cc(Cc2n[nH]c(=O)c3ccccc23)cc(NS(=O)(=O)c2ccc(C(F)(F)F)cc2)c1 [DDT82]
15 | 151 to 152 | 7 | Cc1noc(C)c1-c1cc(Cc2n[nH]c(=O)c3ccccc23)cc(NS(=O)(=O)c2ccc(F)cc2)c1 [DDT86]
16 | 174 to 175 | 72 | Cc1noc(C)c1-c1cc(Cc2n[nH]c(=O)c3ccccc23)cc(NS(=O)(=O)c2ccccc2Cl)c1 [DDT87]
17 | 142 to 143 | 17 | Cc1noc(C)c1-c1cc(Cc2n[nH]c(=O)c3ccccc23)cc(NS(=O)(=O)c2cccc(Cl)c2)c1 [DDT88]
18 | 147 to 148 | 72 | Cc1noc(C)c1-c1cc(Cc2n[nH]c(=O)c3ccccc23)cc(NS(=O)(=O)c2ccc(Cl)cc2)c1 [DDT89]
19 | 171 to 172 | 8 | Cc1noc(C)c1-c1cc(Cc2n[nH]c(=O)c3ccccc23)cc(NS(=O)(=O)c2ccccc2Br)c1 [DDT91]
20 | 147 to 148 | 4 | Cc1noc(C)c1-c1cc(Cc2n[nH]c(=O)c3ccccc23)cc(NS(=O)(=O)c2cccc(Br)c2)c1 [DDT92]
21 | 243 to 244 | 5 | Cc1noc(C)c1-c1cc(Cc2n[nH]c(=O)c3ccccc23)cc(NS(=O)(=O)c2cccc(S(C)(=O)=O)c2)c1 [DDT94]
